Here are results for 9 molecules from publication PMC8784640, “New insights into the molecular mechanisms of glutaminase C inhibitors in cancer cells using serial room temperature crystallography” (The Journal of Biological Chemistry, 2021).

Residue numbers refer to the chain shown, from its start. Values joined by “and” are separate entries in the source; they are usually repeats but may differ in a detail not shown here. Equal values may be shown once.

Data set [1] concerns recombinant GAC. Further details: method as in PMID 26988803. To be noted: cited from earlier work; for IC50: recombinant GAC (50 nM), total glutamine hydrolysis.
Data set [2] concerns mouse GAC (K325A). Also on record: method as in PMID 23935106. As to conditions: concentrations as high as 10 μM; equivalent to human GAC (K320A); cited from earlier work.
Data set [3] concerns the target T1, GAC (F322W) (Mus musculus, UniProt D3Z7P3, F327W).
T1 sequence (D3Z7P3 72-603 isoform D3Z7P3-2 F327W limits assumed): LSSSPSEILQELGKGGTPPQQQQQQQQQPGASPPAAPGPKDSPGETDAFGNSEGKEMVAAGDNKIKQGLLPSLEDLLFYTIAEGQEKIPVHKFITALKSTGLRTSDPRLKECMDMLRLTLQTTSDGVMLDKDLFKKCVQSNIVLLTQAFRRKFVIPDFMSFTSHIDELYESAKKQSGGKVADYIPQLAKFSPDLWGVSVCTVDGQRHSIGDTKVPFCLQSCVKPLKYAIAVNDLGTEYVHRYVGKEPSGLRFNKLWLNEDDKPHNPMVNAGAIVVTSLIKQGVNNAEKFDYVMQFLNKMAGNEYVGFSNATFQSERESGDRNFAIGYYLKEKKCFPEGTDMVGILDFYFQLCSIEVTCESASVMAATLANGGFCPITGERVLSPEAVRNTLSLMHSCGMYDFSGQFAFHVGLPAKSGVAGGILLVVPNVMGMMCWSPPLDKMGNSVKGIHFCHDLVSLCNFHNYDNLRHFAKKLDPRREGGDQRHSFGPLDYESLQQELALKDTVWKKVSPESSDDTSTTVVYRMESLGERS
As to the kind of experiment: Tryptophan fluorescence quenching binding assay, GAC (F322W).
Protocol: (§1) We first examined their ability to alter the conformation of the activation loop, that is, the site where the compounds bind to GAC ([15], [28]). […] We then treated the GAC (Y466W) mutant with each molecule to monitor conformational changes within the substrate-binding site ([15], [28]).
(§2) Mouse GAC (F327W) and GAC (Y471W), which correspond to human GAC (F322W) and GAC (Y466W), were prepared as previously described ([14], [28]), except that the protein was eluted in a higher salt buffer during FPLC purification (500 mM NaCl, 20 mM Tris–HCl, pH 8.5) to enhance protein stability. Assays were then conducted as previously described ([14], [28]). Briefly, 100 nM GAC (F327W) or GAC (Y471W) was solvated in 1 ml of 50 mM Tris-acetate, pH 8.5, with 0.1 mM EDTA and the indicated amount of inhibitor.

The target in data set [4] is T2, GAC (Y466W) (Mus musculus, UniProt D3Z7P3, Y471W).
T2 sequence (D3Z7P3 72-603 isoform D3Z7P3-2 Y471W limits assumed): T1 sequence (D3Z7P3 72-603 isoform D3Z7P3-2 F327W limits assumed) with W256F, Y400W
The data set is described as follows: Tryptophan fluorescence quenching binding assay, GAC (Y466W). As to conditions: for Kd: Kd (apparent), Trp 466 fluorescence quenching.
Protocol: as §1, §2

Details of data set [5]: method as in PMID 26988803. To be noted: compared with BPTES; cited from earlier work.
The target of data set [6] is T3, GAC (K320A and Y466W) (Mus musculus, UniProt D3Z7P3, K325A/Y471W).
T3 construct: made in house
T3 sequence (D3Z7P3 72-603 isoform D3Z7P3-2 K325A/Y471W): T1 sequence (D3Z7P3 72-603 isoform D3Z7P3-2 F327W limits assumed) with K254A, W256F, Y400W
As to the kind of experiment: Tryptophan fluorescence quenching binding assay, GAC (K320A and Y466W). To be noted: GAC mutant K320A, Trp 466 fluorescence, read-out: Kd (apparent).

The target in data set [7] is T4, GAC (F318A and Y466W) (Mus musculus, UniProt D3Z7P3, F323A/Y471W).
T4 sequence (D3Z7P3 128-555 F323A/Y471W): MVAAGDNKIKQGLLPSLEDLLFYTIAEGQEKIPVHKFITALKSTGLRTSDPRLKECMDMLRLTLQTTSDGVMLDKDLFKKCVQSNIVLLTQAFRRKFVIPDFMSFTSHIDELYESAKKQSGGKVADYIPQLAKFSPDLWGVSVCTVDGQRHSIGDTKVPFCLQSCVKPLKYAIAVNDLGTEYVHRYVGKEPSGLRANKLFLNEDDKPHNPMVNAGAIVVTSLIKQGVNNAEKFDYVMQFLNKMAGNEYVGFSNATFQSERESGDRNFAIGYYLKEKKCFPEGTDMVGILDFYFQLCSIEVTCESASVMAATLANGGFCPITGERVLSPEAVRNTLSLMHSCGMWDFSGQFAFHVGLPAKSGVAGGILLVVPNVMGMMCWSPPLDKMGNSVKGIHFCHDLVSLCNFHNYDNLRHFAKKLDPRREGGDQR
As to the kind of experiment: Tryptophan fluorescence quenching binding assay, GAC (F318A and Y466W). To be noted: GAC mutant F318A, Trp 466 fluorescence, read-out: Kd (apparent).

For data set [8], the target named is T5, GAC (R317A and Y466W) (Mus musculus, UniProt D3Z7P3, R322A/Y471W).
T5 sequence (D3Z7P3 128-555 R322A/Y471W): T4 sequence (D3Z7P3 128-555 F323A/Y471W) with R195A, A196F
The data set is described as follows: Tryptophan fluorescence quenching binding assay, GAC (R317A and Y466W). As to conditions: GAC mutant R317A, Trp 466 fluorescence, read-out: Kd (apparent).

In general, IC50 refers to the concentration at which inhibition is half-maximal. As to `O=C(Cc1ccccc1)Nc1nnc(O[C@H]2CCN(c3nnc(NC(=O)Cc4ccccc4)s3)C2)s1` [UPGL00015], the IC50 in data set [1] is 40 nM.
`O=C(Cc1ccccc1)Nc1nnc(CCSCCc2nnc(NC(=O)Cc3ccccc3)s2)s1` [BPTES, bis-2-(5-phenylacetamido-1,3,4-thiadiazol-2-yl)ethyl sulfide, reference compound]: the “inhibition of mouse GAC (K325A)” value in data set [2] is “resistant to inhibition”.
Turning to `Nc1nnc(N2CCC(Oc3nnc(NC(=O)Cc4ccccc4)s3)CC2)s1` [UPGL00031], the Kd was found to be 34.4 nM in data set [3] and 27.2 nM in data set [4] (100 nM GAC (Y466W)). Besides, the “quenching of Trp 322 fluorescence (in words)” value in data set [3] (GAC (F322W)) is listed as “quenching of Trp 322 fluorescence”. In addition, the half-inhibitory concentration (IC50) in data set [1] is 203 nM. In data set [4] (GAC (Y466W)), the “quenching of Trp 466 fluorescence / binding (in words)” value is reported as “effective at causing a quenching of Trp 466 fluorescence”.
Turning to `O=C(Cc1cccc(OC(F)(F)F)c1)Nc1ccc(CCCCc2nnc(NC(=O)Cc3ccccn3)s2)nn1` [CB-839, reference compound], the “calculated logP relative to BPTES” value in data set [5] is “higher calculated logP”.
Take `O=C(Cc1ccccc1)Nc1nnc(NC2CCN(c3nnc(NC(=O)Cc4ccccc4)s3)CC2)s1` [UPGL00004]: the Kd in data set [6] is over 1000 nM; in data set [4] (100 nM GAC (Y466W)), 76 nM; in data set [7] it was 24 nM; in data set [8], 38 nM. Moreover, the IC50 in data set [1] is 29 nM.
In the case of `O=C(Cc1ccccc1)Nc1nnc(OC2CCN(c3nnc(NC(=O)Cc4ccccc4)s3)CC2)s1` [UPGL00019], the Kd in data set [3] was 54.5 nM; in data set [6], over 1000 nM; in data set [4] (100 nM GAC (Y466W)), 28.7 nM and 29 nM; in data set [7], 54 nM; in data set [8], 31 nM. In addition, the “quenching of Trp 322 fluorescence (in words)” value in data set [3] (GAC (F322W)) was “quenching of Trp 322 fluorescence”. Besides, in data set [1], the 50% inhibitory concentration (IC50) was 30 nM. Moreover, in data set [4] (GAC (Y466W)), the “quenching of Trp 466 fluorescence / binding (in words)” value was “effective at causing a quenching of Trp 466 fluorescence”.
For `O=C(Cc1ccccc1)Nc1ccc(OC2CCN(c3ccc(NC(=O)Cc4ccccc4)nn3)CC2)nn1` [UPGL00045], in data set [1], the half-maximal inhibitory concentration (IC50) was 98 nM.
What is called inhibition is the relative decrease from the control value, in per cent. For `Nc1nnc(OC2CCN(c3nnc(N)s3)CC2)s1` [UPGL00018], the Kd in data set [3] and in data set [4] (100 nM GAC (Y466W)) was over 1000 nM in each case. Besides, the “lowest concentration with statistically significant quenching” value in data set [3] (GAC (F322W)) worked out at 240 nM. Also, the “quenching of Trp 322 fluorescence (in words)” value in data set [3] (GAC (F322W)) is reported as “largely ineffective at micromolar concentrations”. For the same molecule, in data set [1] (at 10 μM, catalytic data of this paper come from ref 20), the inhibition was about 20%. In addition, in data set [1], the half-inhibitory concentration (IC50) is over 10000 nM. The “competition with UPGL00019 for GAC binding” value in data set [4] (100 nM GAC (Y466W), 1 μM UPGL00018 and 1 μM UPGL00019, simultaneous or sequential) is “unable to compete away UPGL00019”. In addition, the “quenching of Trp 466 fluorescence / binding (in words)” value in data set [4] (GAC (Y466W)) is listed as “markedly less effective”. Further, the “lowest concentration with statistically significant effect on tryptophan fluorescence” value in data set [4] (GAC (Y466W), highest tested concentration, effect minimal) is 980 nM.
As to `CC(=O)Nc1nnc(OC2CCN(c3nnc(NC(C)=O)s3)CC2)s1` [UPGL00020], the IC50 in data set [1] is 1050 nM. The “quenching of Trp 466 fluorescence / binding (in words)” value in data set [4] (GAC (Y466W)) is on record as “significantly reduced binding”.
